Experimental data: US10669288B2, “Lanthanide complexes based on triethylenetetramine-N,N,N′,N″,N′″,N′″-hexaacetic acid derivatives” (UNIVERSITE D'ORLEANS, priority 2017, dated 2020)
“And” between values parts separate entries of the source, which are not always exact repeats. Equal values may be shown once.

Key:
[1] = Photophysical properties (absorption, emission, luminescence lifetime, quantum yields) in solution; assay type: physicochemical
Text: L1 ligand and L1Nd^3+ complex (Example 2) both have broad absorption bands which extend over a wavelength range having values as high as 750 nm with maxima centered at ˜615 and ˜670 nm and molar absorption coefficients up to 5·10^3 M^−1 cm^−1. Upon excitation of the low energy absorption bands located on L1 and on the L1Nd^3+ complex, it is possible to observe broadband emission signals from the chromophore ligand centered at ˜690 nm with a shoulder at ˜740 nm. The complex L1Nd^3+, when excited at a wavelength of 650 nm, produces a narrow emission band with a maximum at 1064 nm which is characteristic of the electronic structure of Nd^3+ resulting from the transition ^4F3/2→^4I11/2. […] As a result, ligand L1 and complex L1Nd^3+ both have excitation and emission wavelengths included in the domain of the biological diagnostic window (FIG. 1).
The quantitative luminescence parameters (luminescence lifetime (i) and luminescence quantum yields centered on L1-(QL) and on Nd^3+-(QNd)) determined on the L1Nd^3+ complex are summarized in Table 3.1.
Relatively short life time values T (in the nanosecond range) and low QNd quantum yields have been measured for the near-infrared emission of Nd^3+ in comparison with the highest corresponding values that have been published to date. […]
The quantum yield of the emission from the ligand is lower by a ratio of 30% for the Nd^3+ complex relative to the L1 ligand. […] It is important to point out that narrow Nd^3+ emission band positions are unaffected by microenvironmental changes, which is a major advantage over the “wavelength” indocyanine green commercial fluorophore. of similar excitation (Fernandez-Fernandez, R. Manchanda, T. Lei, D. A. Carvajal, Y. Tang, S. Z. Razza Kazmi, A. J. McGoron, Comparative study of the optical and heat generation properties of IR820 and indocyanine green, Molecular imaging, 11 (2012) 99 and S. Mordon, J. M. Devoisselle, S. Soulie-Begu, T. Desmetter, Indocyanine green: Physicochemical factors affecting its fluorescence in vivo, Microvascular Research, 55 (1998) 146-152).

[2] = Photostability in solution under continuous illumination at 630 nm; assay type: physicochemical; conditions: 3 h continuous illumination at 630 nm; 100 μM, HEPES pH 7.5, room temperature
Text: The photostabilities of L1 and L1Nd^3+ were studied under continuous illumination at 630 nm (FIG. 2).

NCCNc1ccc(NCCNC(=O)CN(CCN(CCN(CCN(CC(=O)O)CC(=O)O)CC(=O)O)CC(=O)O)CC(=O)O)c2c1C(=O)c1c(O)ccc(O)c1C2=O [Compound L1, 3-(2-((2-((4-((2-aminoethyl)amino)-5,8-di hydroxy-9,10-dioxo-9,10-dihydroanthracen-1-yl)aminoacid)ethyl)amino)-2-oxoethyl)-6,9,12-tris(carboxymethyl)-3,6,9,12-tétraazatétradécane-1,14-dioic]
absorption maxima ([1]; broad absorption bands extending to 750 nm, HEPES buffer): ~615 nm and ~670 nm | QL(%) (quantum yield centered on L1) ([1]; excitation at 620 nm, emission collected 640-850 nm, 100 μM, pH = 7.5, room temperature): 0,257(5) % | broadband emission from the chromophore ligand, centre ([1]; excitation of low energy absorption bands, shoulder at ~740 nm): ~690 nm | loss of initial emission intensity [2]: ~70%
